From US6610675B1 (priority 1980, dated 2003)

Legend:
Type in all cases: in vivo, rat
[1] = test system: thymus weight in rats; test: Thymus inhibition testing (subcutaneous administration); conditions: for Body weight gain / Thymus / Thymus Inhibition: Table VII, three days
How it was run: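 Male Sprague-Dawley rats were dosed systemically. On the fifth day, 48 hours after the last treatment, animals were sacrificed and thymus weights recorded.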

[2] = test system: granulation tissue formation caused by implantation of cotton pellets; test: Granuloma formation test (local cotton pellet granuloma assay)
Experimental: The test compound was dissolved in acetone and aliquots of varying concentrations were injected into cotton pellets. The pellets were dried and then one pellet was implanted beneath the skin of each test rat. Six days later, the animals were sacrificed and the granulation tissue (granuloma) which formed in and around the implanted pellet was removed, dried and weighed. In addition, the thymi and adrenals were removed and weighed.

[3] = test system: blank cotton pellet granuloma; test: Blank cotton pellet granuloma assay (intravenous administration); conditions: 3 days
Experimental: A further test was undertaken to determine the thymolytic activity of a representative species of the invention as compared to betamethasone 17-valerate. In this test, the drugs were administered intravenously to rats, while using a blank cotton pellet granuloma assay. Male Sprague-Dawley rats, each weighing about 185 grams (166-196 grams), were used. Two cotton pellets, each weighing 30 mg and containing no test compounds, were sterilized and implanted sub-cutaneously into the back of each test animal. This day was considered day 0 of implantation. Test compounds suspended in 0.8% polysorbate 80 were administered intravenously once daily for 3 consecutive days beginning with day 1. On day 5, the animals were sacrificed and the two pellets, with their respective granulomas, were removed, dried overnight in an oven at 50° C. and weighed (dry granuloma weight). The thymi and final body weights were also recorded.
In the foregoing tests, there was determined the deactivation of the representative species of the present soft steroids administered intravenously to rats. […] The test compounds were administered intravenously to rats to check the test compounds also for systemic anti-inflammatory activity as compared to betamethasone 17-valerate. The test compounds were found lower in the inhibition of granulation tissue formation and also in the thymus involution activity than betamethasone 17-valerate. From the results of the tests, it is presumed that the compounds which will not be readily subjected to metabolism (deactivation) have a systemic anti-inflammatory activity, as is the case with betamethasone 17-valerate.

[4] = test system: ear swelling induced by croton oil; test: Ear edema test; conditions: 1 mg/kg topical
Experimental: The test animals were Sprague/Dawley rats weighing approximately 150 grams each. In treatment groups, selected amounts of the test compound were dissolved in acetone containing 5% croton oil and 50 microliters of the solution were applied to the inner surface of the right ear of the rats. A control group was identically treated with vehicle only, i.e. 5% croton oil in acetone. Six hours after croton oil challenge, a constant region of each ear was removed by dissection under anesthesia. Then, 48 hours after steroid treatment, the animals were sacrificed and the thymi and adrenals were removed and weighed. The test results showing the inhibitory effect of topically applied steroids on the ear swelling induced by croton oil are summarized in Table II below.

[5] = Table X, betamethasone 17-valerate = 1

CCCCC(=O)O[C@]1(C(=O)CO)[C@@H](C)C[C@H]2[C@@H]3CCC4=CC(=O)C=C[C@]4(C)[C@@]3(F)[C@@H](O)C[C@@]21C [Betamethasone 17-valerate, reference compound]
Body weight gain ([1]; 0.1 mg/kg/day s.c.): 15.5 ± 0.9 g
Thymus ([1]; 0.1 mg/kg/day s.c.): 362 ± 16 mg
Thymus Inhibition ([1]; 0.1 mg/kg/day s.c.): 23.1%
Body weight gain ([1]; 0.3 mg/kg/day s.c.): 12.4 ± 0.9 g
Thymus ([1]; 0.3 mg/kg/day s.c.): 276 ± 11 mg
Thymus Inhibition ([1]; 0.3 mg/kg/day s.c.): 41.4%
Body weight gain ([1]; 1 mg/kg/day s.c.): 13.0 ± 1.1 g
Thymus ([1]; 1 mg/kg/day s.c.): 200 ± 14 mg
Thymus Inhibition ([1]; 1 mg/kg/day s.c.): 57.5%
Body weight gain ([1]; 3 mg/kg/day s.c.): 9.9 ± 1.3 g
Thymus ([1]; 3 mg/kg/day s.c.): 119 ± 7 mg
Thymus Inhibition ([1]; 3 mg/kg/day s.c.): 74.7%
Relative Potency (TED40) [1, 5]: 1
Relative Potency (TED50) [1, 5]: 1
TED40 ([1]; Table X, dose required to achieve 40% inhibition of thymi weight, subcutaneous): 0.30 mg
TED50 ([1]; Table X, dose required to achieve 50% inhibition of thymi weight, subcutaneous): 0.58 mg
Relative Potency (TED40) ([1]; Table XII, hydrocortisone 17-butyrate = 1): 4
TED40 ([1]; Table XII, thymus inhibition effect, subcutaneously): 0.3 mg/kg
Body wt. gain ([2]; Table III, 1 mg/pellet): 16.6 ± 1.9 g
Granulation tissue Dry wt. ([2]; Table III, 1 mg/pellet): 35.4 ± 7.3 mg/100 g body wt.
Granulation tissue Inhibition ([2]; Table III, 1 mg/pellet): 19.0%
Relative organ weight Adrenals ([2]; Table III, 1 mg/pellet): 15.5 ± 1.3 mg/100 g body wt.
Relative organ weight Adrenals (Decrease %) ([2]; Table III, 1 mg/pellet): (34.6) %
Relative organ weight Thymus ([2]; Table III, 1 mg/pellet): 47 ± 2 mg/100 g body wt.
Relative organ weight Thymus (Decrease %) ([2]; Table III, 1 mg/pellet): (85.6) %
Body wt. gain ([2]; Table III, 3 mg/pellet): 14.9 ± 1.7 g
Granulation tissue Dry wt. ([2]; Table III, 3 mg/pellet): 31.6 ± 2.1 mg/100 g body wt.
Granulation tissue Inhibition ([2]; Table III, 3 mg/pellet): 27.7%
Relative organ weight Adrenals ([2]; Table III, 3 mg/pellet): 13.6 ± 0.9 mg/100 g body wt.
Relative organ weight Adrenals (Decrease %) ([2]; Table III, 3 mg/pellet): (42.6) %
Relative organ weight Thymus ([2]; Table III, 3 mg/pellet): 38 ± 3 mg/100 g body wt.
Relative organ weight Thymus (Decrease %) ([2]; Table III, 3 mg/pellet): (88.3) %
Body wt. gain ([2]; Table III, 10 mg/pellet): 17.0 ± 2.1 g
Granulation tissue Dry wt. ([2]; Table III, 10 mg/pellet): 40.7 ± 2.6 mg/100 g body wt.
Granulation tissue Inhibition ([2]; Table III, 10 mg/pellet): 6.9%
Relative organ weight Adrenals ([2]; Table III, 10 mg/pellet): 12.6 ± 0.9 mg/100 g body wt.
Relative organ weight Adrenals (Decrease %) ([2]; Table III, 10 mg/pellet): (46.8) %
Relative organ weight Thymus ([2]; Table III, 10 mg/pellet): 43 ± 4 mg/100 g body wt.
Relative organ weight Thymus (Decrease %) ([2]; Table III, 10 mg/pellet): (86.8) %
Body wt. gain ([2]; Table IV, 100 μg/pellet): 24.9 ± 1.9 g
Granulation tissue Dry wt. ([2]; Table IV, 100 μg/pellet): 41.1 ± 2.7 mg
Granulation tissue Dry wt. Inhibition ([2]; Table IV, 100 μg/pellet): 49.4%
Granulation tissue Wet wt. ([2]; Table IV, 100 μg/pellet): 400 ± 19 mg
Granulation tissue Wet wt. Inhibition ([2]; Table IV, 100 μg/pellet): 29.3%
Thymus wt. ([2]; Table IV, 100 μg/pellet): 364 ± 24 mg
Thymus wt. (Decrease %) ([2]; Table IV, 100 μg/pellet): (18.2) %
Body wt. gain ([2]; Table IV, 300 μg/pellet): 22.3 ± 1.2 g
Granulation tissue Dry wt. ([2]; Table IV, 300 μg/pellet): 33.3 ± 3.6 mg
Granulation tissue Dry wt. Inhibition ([2]; Table IV, 300 μg/pellet): 59.0%
Granulation tissue Wet wt. ([2]; Table IV, 300 μg/pellet): 347 ± 15 mg
Granulation tissue Wet wt. Inhibition ([2]; Table IV, 300 μg/pellet): 38.7%
Thymus wt. ([2]; Table IV, 300 μg/pellet): 264 ± 29 mg
Thymus wt. (Decrease %) ([2]; Table IV, 300 μg/pellet): (40.7) %
Body wt. gain ([2]; Table IV, 1000 μg/pellet): 5.3 ± 1.0 g
Granulation tissue Dry wt. ([2]; Table IV, 1000 μg/pellet): 38.1 ± 4.8 mg
Granulation tissue Dry wt. Inhibition ([2]; Table IV, 1000 μg/pellet): 53.1%
Granulation tissue Wet wt. ([2]; Table IV, 1000 μg/pellet): 363 ± 28 mg
Granulation tissue Wet wt. Inhibition ([2]; Table IV, 1000 μg/pellet): 35.9%
Thymus wt. ([2]; Table IV, 1000 μg/pellet): 77 ± 5 mg
Thymus wt. (Decrease %) ([2]; Table IV, 1000 μg/pellet): (82.7) %
Body wt. gain ([2]; Table IV, 3000 μg/pellet): 6.6 ± 1.4 g
Granulation tissue Dry wt. ([2]; Table IV, 3000 μg/pellet): 43.0 ± 4.1 mg
Granulation tissue Dry wt. Inhibition ([2]; Table IV, 3000 μg/pellet): 47.0%
Granulation tissue Wet wt. ([2]; Table IV, 3000 μg/pellet): 374 ± 15 mg
Granulation tissue Wet wt. Inhibition ([2]; Table IV, 3000 μg/pellet): 33.9%
Thymus wt. ([2]; Table IV, 3000 μg/pellet): 63 ± 3 mg
Thymus wt. (Decrease %) ([2]; Table IV, 3000 μg/pellet): (85.8) %
Body wt. gain ([2]; Table V-a, 10 μg/pellet): 31.8 ± 1.6 g
Granulation tissue Dry wt. ([2]; Table V-a, 10 μg/pellet): 38.5 ± 6.2 mg
Granulation tissue Dry wt. Inhibition ([2]; Table V-a, 10 μg/pellet): 51.9%
Granulation tissue Wet wt. ([2]; Table V-a, 10 μg/pellet): 375 ± 19 mg
Granulation tissue Wet wt. Inhibition ([2]; Table V-a, 10 μg/pellet): 28.6%
Thymus wt. ([2]; Table V-a, 10 μg/pellet): 479 ± 25 mg
Thymus wt. (Decrease %) ([2]; Table V-a, 10 μg/pellet): (3.2) %
Body wt. gain ([2]; Table V-a, 30 μg/pellet): 30.8 ± 3.0 g
Granulation tissue Dry wt. ([2]; Table V-a, 30 μg/pellet): 46.2 ± 7.4 mg
Granulation tissue Dry wt. Inhibition ([2]; Table V-a, 30 μg/pellet): 42.3%
Granulation tissue Wet wt. ([2]; Table V-a, 30 μg/pellet): 412 ± 42 mg
Granulation tissue Wet wt. Inhibition ([2]; Table V-a, 30 μg/pellet): 21.5%
Thymus wt. ([2]; Table V-a, 30 μg/pellet): 484 ± 23 mg
Thymus wt. (Decrease %) ([2]; Table V-a, 30 μg/pellet): (2.2) %
Body wt. gain ([2]; Table V-a, 100 μg/pellet): 25.7 ± 1.2 g
Granulation tissue Dry wt. ([2]; Table V-a, 100 μg/pellet): 41.0 ± 4.2 mg
Granulation tissue Dry wt. Inhibition ([2]; Table V-a, 100 μg/pellet): 48.8%
Granulation tissue Wet wt. ([2]; Table V-a, 100 μg/pellet): 419 ± 20 mg
Granulation tissue Wet wt. Inhibition ([2]; Table V-a, 100 μg/pellet): 20.2%
Thymus wt. ([2]; Table V-a, 100 μg/pellet): 378 ± 30 mg
Thymus wt. (Decrease %) ([2]; Table V-a, 100 μg/pellet): (23.6) %
ED50 ([2]; Table XII, anti-inflammatory effect in cotton pellet granuloma): 100 μg/pellet
Body wt. gain ([3]; 0.1 mg/kg/day i.v.): 14.4 ± 1.6 g
Dry granuloma wt. ([3]; 0.1 mg/kg/day i.v.): 49.3 ± 3.9 mg
Dry granuloma wt. Inhibition ([3]; 0.1 mg/kg/day i.v.): 21.4%
Thymus wt. ([3]; 0.1 mg/kg/day i.v.): 305 ± 14 mg
Thymus wt. Decrease ([3]; 0.1 mg/kg/day i.v.): 27.7%
Body wt. gain ([3]; 0.3 mg/kg/day i.v.): 12.2 ± 1.1 g
Dry granuloma wt. ([3]; 0.3 mg/kg/day i.v.): 44.4 ± 2.8 mg
Dry granuloma wt. Inhibition ([3]; 0.3 mg/kg/day i.v.): 29.2%
Thymus wt. ([3]; 0.3 mg/kg/day i.v.): 288 ± 27 mg
Thymus wt. Decrease ([3]; 0.3 mg/kg/day i.v.): 31.8%
Body wt. gain ([3]; 1 mg/kg/day i.v.): 12.9 ± 1.1 g
Dry granuloma wt. ([3]; 1 mg/kg/day i.v.): 46.1 ± 4.3 mg
Dry granuloma wt. Inhibition ([3]; 1 mg/kg/day i.v.): 26.5%
Thymus wt. ([3]; 1 mg/kg/day i.v.): 233 ± 15 mg
Thymus wt. Decrease ([3]; 1 mg/kg/day i.v.): 44.8%
Body wt. gain ([3]; 3 mg/kg/day i.v.): 13.0 ± 2.5 g
Dry granuloma wt. ([3]; 3 mg/kg/day i.v.): 47.3 ± 2.7 mg
Dry granuloma wt. Inhibition ([3]; 3 mg/kg/day i.v.): 24.6%
Thymus wt. ([3]; 3 mg/kg/day i.v.): 167 ± 22 mg
Thymus wt. Decrease ([3]; 3 mg/kg/day i.v.): 60.4%
Ear Weight, % Increase ([4]; 6 hr): 10.9 ± 6.3 %
Ear Weight, % Inhibition ([4]; 6 hr): 82.2%
Ear Weight, Inflamed Ear ([4]; 6 hr): 55.4 ± 1.2 mg
Ear Weight, Untreated Ear ([4]; 6 hr): 50.4 ± 2.0 mg
Relative organ weight Adrenals ([4]; 48 hours): 18.9 ± 1.9 mg/100 g body wt.
Relative organ weight Thymus ([4]; 48 hours): 267 ± 19 mg/100 g body wt.
